The source of these data is patent publication US20250282749A1 (Tango Therapeutics, Inc., priority 2022, published 2025).

A value given as a limit tells only on which side of the number the result lay.

Holding throughout (assay type): cell-based
The test system of test [1] is PRMT5 (SDMA) in HAP1 MTAP-intact cell line. Nature of the test: SDMA in-cell western assay, HAP1 MTAP-intact cell line. As to conditions: Homo sapiens, HAP1 MTAP-intact cell line (endogenous MTAP), read-out: Hap 1 MTAP intact IC50. The text has this:
(§1) HAP1 MTAP-intact is a cell line in which endogenous levels of MTAP are expressed, and HAP1 MTAP-deleted is an MTAP-null cell line.

The subject of test [2] is PRMT5 (SDMA) in HAP1 MTAP-deleted cell line. Kind of test: SDMA in-cell western assay, HAP1 MTAP-deleted cell line. The settings on record: for IC50 / IC90: Homo sapiens, SDMA in-cell western, HAP1 MTAP-deleted (MTAP-null) cell line; for Hap1 MTAP intact/deleted ratio: ratio of SDMA in-cell western IC50 in HAP1 MTAP-intact to IC50 in HAP1 MTAP-deleted cell line.
Text: as §1

The subject of test [3] is HAP1 MTAP-deleted cell line. Kind of test: viability assay for the MTAP-deleted cell line. The settings on record: Homo sapiens.

`COc1ncc(NC(=O)C(=O)N2C[C@@H](C)N(C(=O)C(C)C)C[C@@H]2c2ccc(F)cc2)cc1C(N)=O` [Compound 83, 5-[[2-[(2S,5R)-2-(4-fluorophenyl)-5-methyl-4-(2-methylpropanoyl)piperazin-1-yl]-2-oxo-acetyl]amino]-2-methoxy-pyridine-3-carboxamide]: the IC50 in test [1] was > 50 nM. In test [2], the IC50 lay in the range of 5 to 50 nM, the IC90 was 75 to 125 nM and the “Hap1 MTAP intact/deleted ratio” value is “A (an IC50 ratio greater than or equal to 30 fold)”. In test [3], this molecule yielded an IC50 of 100 to 1000 nM.

For `CCc1cc(NC(=O)C(=O)N2C[C@@H](C)N(C(=O)C3(C(F)(F)F)CC3)C[C@@H]2c2ccccc2)cnc1N` [Compound 81, N-(6-amino-5-ethylpyridin-3-yl)-2-((2S,5R)-5-methyl-2-phenyl-4-(1-(trifluoromethyl)cyclopropanecarbonyl)piperazin-1-yl)-2-oxoacetamide], the IC50 in test [1] was > 50 nM; in test [2], 5 to 50 nM; in test [3], < 100 nM. The IC90 in test [2] lay within 75 to 125 nM. Moreover, in test [2], the “Hap1 MTAP intact/deleted ratio” value is on record as “B (an IC50 ratio greater than or equal to 15 fold but lower than 30 fold)”.

On to `C[C@@H]1CN(C(=O)C(=O)Nc2cnc(N)c3cn[nH]c23)[C@@H](c2ccc(F)cc2)CN1C(=O)C(C)(C)C` [Compound 46], for which the IC50 in test [1] is 5 to 50 nM. In addition, in test [2], the IC50 was < 5 nM, the IC90 is < 75 nM and the “Hap1 MTAP intact/deleted ratio” value was “C (an IC50 ratio of less than 15 fold)”. In addition, the half-inhibitory concentration (IC50) in test [3] was < 100 nM.

On to `C[C@@H]1CN(C(=O)C(=O)Nc2cnc(N)c(C3CC3)c2)[C@@H](c2ccccc2)CN1C(=O)C1(C)CC1` [Compound 94, N-(6-amino-5-cyclopropylpyridin-3-yl)-2-((2S,5R)-5-methyl-4-(1-methylcyclopropanecarbonyl)-2-phenylpiperazin-1-yl)-2-oxoacetamide], for which the IC50 in test [1] is > 50 nM. In addition, in test [2], the IC50 was < 5 nM, the IC90 was 75 to 125 nM and the “Hap1 MTAP intact/deleted ratio” value is listed as “B (an IC50 ratio greater than or equal to 15 fold but lower than 30 fold)”. The IC50 in test [3] was < 100 nM.

In the case of `Cc1cc(NC(=O)C(=O)N2C[C@@H](C)N(C(=O)C3(C)CC3)C[C@@H]2c2ccsc2)cnc1N` [Compound 31, N-(6-amino-5-methyl-3-pyridyl)-2-[(2S,5R)-5-methyl-4-(1-methylcyclopropanecarbonyl)-2-(3-thienyl)piperazin-1-yl]-2-oxo-acetamide], the IC50 in test [1] was > 50 nM. Further, in test [2], the IC50 is < 5 nM, the IC90 was > 125 nM and the “Hap1 MTAP intact/deleted ratio” value is “B (an IC50 ratio greater than or equal to 15 fold but lower than 30 fold)”. In addition, the IC50 in test [3] was < 100 nM.

For `C[C@@H]1CN(C(=O)C(=O)Nc2cnc(N)c(C3CC3)c2)[C@@H](c2ccc(F)c(F)c2)CN1C(=O)C1(C)CC1` [Compound 59, N-(6-amino-5-cyclopropylpyridin-3-yl)-2-((2S,5R)-2-(3,4-difluorophenyl)-5-methyl-4-(1-methylcyclopropanecarbonyl)piperazin-1-yl)-2-oxoacetamide], the IC50 in test [1] was > 50 nM. Also, in test [2], the IC50 was < 5 nM, the IC90 was < 75 nM and the “Hap1 MTAP intact/deleted ratio” value was “B (an IC50 ratio greater than or equal to 15 fold but lower than 30 fold)”. Moreover, the IC50 in test [3] was < 100 nM.

Regarding `CC(C)C(=O)N1C[C@H](c2ccc(F)c(F)c2)N(C(=O)C(=O)Nc2cnc(N)c(C3CC3)c2)C[C@H]1C` [Compound 75, N-(6-amino-5-cyclopropylpyridin-3-yl)-2-((5R)-2-(3,4-difluorophenyl)-4-isobutyryl-5-methylpiperazin-1-yl)-2-oxoacetamide], the IC50 in test [1] is > 50 nM. Also, in test [2], the IC50 is 5 to 50 nM, the concentration for an effect of 90% (IC90) was > 125 nM and the “Hap1 MTAP intact/deleted ratio” value is “C (an IC50 ratio of less than 15 fold)”. The IC50 in test [3] was < 100 nM.

Consider `CC(C)C(=O)N1C[C@H](c2ccc(F)cc2)N(C(=O)C(=O)Nc2cnc(N)c(C3CC3)c2)C[C@H]1C` [Compound 86, N-(6-amino-5-cyclopropylpyridin-3-yl)-2-((2S,5R)-2-(4-fluorophenyl)-4-isobutyryl-5-methylpiperazin-1-yl)-2-oxoacetamide], for which the IC50 in test [1] was > 50 nM. For the same molecule, in test [2], the IC50 lay in the range of 5 to 50 nM, the IC90 is < 75 nM and the “Hap1 MTAP intact/deleted ratio” value is listed as “C (an IC50 ratio of less than 15 fold)”. Also, the IC50 in test [3] was < 100 nM.

`CCc1cc(NC(=O)C(=O)N2C[C@@H](C)N(C(=O)C(C)(C)C)C[C@@H]2c2ccccc2)cnc1N` [Compound 140, N-(6-amino-5-ethylpyridin-3-yl)-2-((2S,5R)-5-methyl-2-phenyl-4-pivaloylpiperazin-1-yl)-2-oxoacetamide]: in test [1], the IC50 was in the range of 5 to 50 nM. Further, in test [2], the IC50 is < 5 nM, the 90% effect concentration (IC90) was < 75 nM and the “Hap1 MTAP intact/deleted ratio” value is “C (an IC50 ratio of less than 15 fold)”. In test [3], the IC50 was < 100 nM.

As for `C[C@@H]1CN(C(=O)C(=O)Nc2cnc(N)c(C3CC3)c2)[C@@H](c2ccc(F)cc2)CN1C(=O)C1(C(F)(F)F)CC1` [Compound 112, N-(6-amino-5-cyclopropylpyridin-3-yl)-2-((2S,5R)-2-(4-fluorophenyl)-5-methyl-4-(1-(trifluoromethyl)cyclopropanecarbonyl)piperazin-1-yl)-2-oxoacetamide], the IC50 in test [1] was > 50 nM. In addition, in test [2], the half-maximal inhibitory concentration (IC50) was in the range of 5 to 50 nM, the IC90 is 75 to 125 nM and the “Hap1 MTAP intact/deleted ratio” value is reported as “C (an IC50 ratio of less than 15 fold)”. In addition, in test [3], the IC50 was < 100 nM.

As to `Cc1cccc([C@H]2CN(C(=O)C3(C(F)(F)F)CC3)[C@H](C)CN2C(=O)C(=O)Nc2cnc(N)c(C)c2)c1` [Compound 30, N-(6-amino-5-methylpyridin-3-yl)-2-((2S,5R)-5-methyl-2-(m-tolyl)-4-(1-(trifluoromethyl)cyclopropanecarbonyl)piperazin-1-yl)-2-oxoacetamide], the IC50 in test [1] is > 50 nM. In test [2], the IC50 is 5 to 50 nM, the IC90 is 75 to 125 nM and the “Hap1 MTAP intact/deleted ratio” value is listed as “C (an IC50 ratio of less than 15 fold)”. Moreover, the IC50 in test [3] was < 100 nM.

For the molecule `C[C@@H]1CN(C(=O)C(=O)Nc2cncc3cn[nH]c23)[C@@H](c2ccccc2)CN1C(=O)OC(C)(C)C` [Compound 35, tert-butyl (2R,5S)-2-methyl-4-[2-oxo-2-(1H-pyrazolo[4,3-c]pyridin-7-ylamino)acetyl]-5-phenyl-piperazine-1-carboxylate], the IC50 in test [1] is > 50 nM. Also, in test [2], the half-maximal inhibitory concentration (IC50) is 5 to 50 nM, the IC90 was > 125 nM and the “Hap1 MTAP intact/deleted ratio” value is on record as “A (an IC50 ratio greater than or equal to 30 fold)”. Moreover, the IC50 in test [3] was < 100 nM.

For `CC(C)OC(=O)N1C[C@H](c2ccc(F)cc2)N(C(=O)C(=O)Nc2cnc(N)c(C3CC3)c2)C[C@H]1C` (stereo in doubt) [Compound 92, isopropyl 4-(2-((6-amino-5-cyclopropylpyridin-3-yl)amino)-2-oxoacetyl)-5-(4-fluorophenyl)-2-methylpiperazine-1-carboxylate], the IC50 in test [1] is > 50 nM; in test [2], > 50 nM; in test [3], > 1000 nM. Also, in test [2], the IC90 is > 125 nM. Moreover, the “Hap1 MTAP intact/deleted ratio” value in test [2] is given as “C (an IC50 ratio of less than 15 fold)”.

`Cc1cc(NC(=O)C(=O)N2C[C@@H](C)N(CC(C)C)C[C@@H]2c2ccc(F)cc2)cnc1N` [Compound 154, N-(6-amino-5-methyl-3-pyridyl)-2-[(2S,5R)-2-(4-fluorophenyl)-4-isobutyl-5-methyl-piperazin-1-yl]-2-oxo-acetamide]: in test [1], the half-inhibitory concentration (IC50) was > 50 nM. Besides, in test [2], the IC50 was > 50 nM, the IC90 is > 125 nM and the “Hap1 MTAP intact/deleted ratio” value was “C (an IC50 ratio of less than 15 fold)”. Also, the IC50 in test [3] is > 1000 nM.

Take `CC(C)C(=O)N1C[C@H](c2ccccc2)N(C(=O)C(=O)Nc2cnc(N)c(C3CC3)c2)C[C@H]1C` [Compound 98, N-(6-amino-5-cyclopropylpyridin-3-yl)-2-((2S,5R)-4-isobutyryl-5-methyl-2-phenylpiperazin-1-yl)-2-oxoacetamide]: the IC50 in test [1] was > 50 nM. For the same molecule, in test [2], the IC50 fell in the range of 5 to 50 nM, the concentration for an effect of 90% (IC90) lay in the range of 75 to 125 nM and the “Hap1 MTAP intact/deleted ratio” value is “C (an IC50 ratio of less than 15 fold)”. Moreover, the half-maximal inhibitory concentration (IC50) in test [3] was < 100 nM.

Take `CC(C)CN1C[C@@H](c2ccc(F)cc2)N(C(=O)C(=O)Nc2cnc(N)c(C3CC3)c2)C[C@H]1C` (single isomer, unassigned) [Compound 84]: in test [1], the IC50 is > 50 nM. In addition, in test [2], the half-inhibitory concentration (IC50) fell in the range of 5 to 50 nM, the IC90 is < 75 nM and the “Hap1 MTAP intact/deleted ratio” value is recorded as “A (an IC50 ratio greater than or equal to 30 fold)”. Moreover, in test [3], the IC50 is < 100 nM.

As for `CC(C)C(=O)N1C[C@H](c2ccc(N3CCN(C)CC3)cc2)N(C(=O)C(=O)Nc2cnc(N)c(C3CC3)c2)C[C@H]1C` (racemic) [Compound 4, rac-N-(6-amino-5-cyclopropylpyridin-3-yl)-2-((2R,5S)-4-isobutyryl-5-methyl-2-(4-(4-methylpiperazin-1-yl)phenyl)piperazin-1-yl)-2-oxoacetamide], in test [1], the IC50 was > 50 nM. In addition, in test [2], the IC50 fell in the range of 5 to 50 nM, the 90% effect concentration (IC90) is > 125 nM and the “Hap1 MTAP intact/deleted ratio” value is recorded as “C (an IC50 ratio of less than 15 fold)”. The same molecule registered an IC50 in test [3] of 100 to 1000 nM.

One may read the IC50 as the concentration that inhibits the measured activity by half. In general, IC90 refers to the point of the concentration-response curve where the effect stands at 90%. A higher IC90 goes with a need for much substance.
